Test results taken from patent publication US20210263015A1, “MEASUREMENT METHOD” (priority 2018, published 2021).

Legend:
Type in all cases: cell-based
[1] = test system: Cerebral cortex neurons derived from human iPS cells; experiment: Neural activity propagation in neural network of nerve cell device on MEA (4-AP)
Source text: FIG. 3 is a diagram showing the results of measuring by MEA (16 channels) the effect of 4-aminopyridines (4-AP) on the propagation speed of action potential in a neural network included in a nerve cell device. (A) is a raster plot diagram of the electrical signal measured by MEA after the addition of DMSO (upper figure) or 4-AP (lower figure). (B) is a diagram showing the results of measuring the time taken by the action potential in a neural network from the channel number 1 of the MEA to the channel number 16 (the channel at the diagonal of the MEA) after the addition of 4-AP (0.3, 1, and 3 μM) or DMSO and before the addition of the drug. The results are relative values in which the action potential arrival time in case of before the addition of the drug is taken as 100, and indicated by the average ±standard error (n=4). The decrease in the relative value of arrival time of action potential indicates an increase in the propagation speed of the action potential.
An oriented PS fiber sheet obtained by mounting a stainless steel circular frame produced in Example 1 was hydrophilized by plasma treatment using a desktop plasma treatment apparatus (STREX Inc.), and then coated with poly-D-lysine and laminin. […] The nerve action potential and the propagation direction of the neural activity were measured. […]

[2] = test system: spinal motion neuron derived from human iPS cells
[3] = test system: Nerve cells derived from human iPS cells (XCL-1 neuron); experiment: Neural activity propagation in neural network of nerve cell device on MEA (picrotoxin), XCL-1 neurons; conditions: picrotoxin 0.1-10 μm; XCL-1 neurons seeded at 3×10^5 or 9×10^5 cells/cm^2; relative to vehicle (DMSO)
Method: (§1) FIG. 4 is a diagram showing the results obtained by measuring the effect of picrotoxin by changing its concentration on the propagation speed of action potential in a neural network included in a nerve cell device having a different cell seeding density. As nerve cells, XCL-1 neurons (Xcell Science, US) were seeded at density of 3×10^5 cells/cm^2 (A) and 9×10^5 cells/cm^2 (B) or cerebral cortex neurons derived from human iPS cells (Axol Bioscience, UK) were seeded at density of 8x10^5 cells/cm^2 (C) and 24×10^5 cells/cm^2 (D) and cultured for 6 weeks. The concentrations of picrotoxin were 0.1, 0.3, 1, 3 and 10 μM. The results are relative values in which the propagation speed of action potential in case of the addition of vehicle (DMSO, a solvent in the drug) is taken as 100, and indicated by the average ±standard error (A, n=3; B, n=6; C, n=2; D, n=4).
(§2) An oriented PS fiber sheet obtained by mounting a stainless steel circular frame produced in Example 1 was hydrophilized by plasma treatment using a desktop plasma treatment apparatus (STREX Inc.), and then coated with poly-D-lysine and laminin. […] The nerve action potential was determined.

[4] = test system: Cerebral cortex neurons derived from human iPS cells; experiment: Neural activity propagation in neural network of nerve cell device on MEA (picrotoxin), cerebral cortex neurons; conditions: picrotoxin 0.1-10 μm; cerebral cortex neurons seeded at 8×10^5 or 24×10^5 cells/cm^2; relative to vehicle (DMSO)
Method: as §1, §2

Nc1ccncc1 [4-AP, 4-aminopyridin]
propagation speed of neural activity ([1]; 4-AP 3 μM, channel 1 to channel 16 of MEA, DMSO 0.14 m/sec): 0.39 m/sec
propagation speed of neural activity, concentration dependence (relative action potential arrival time) ([1]; 4-AP 0.3, 1 and 3 μM, n=4): increase dependently with the concentration of 4-AP

NC1=N[C@H](O)[C@H]2[C@H]3O[C@]4(O)O[C@@H]([C@@H](O)[C@@]2(N1)[C@@H]4O)[C@]3(O)CO [TTX, tetrodotoxin]
peak time of action potential [2]: delayed

picrotoxin
propagation speed of action potential, concentration dependence [3]: an increase in propagation speed of a concentration-dependent action potential was observed
propagation speed of action potential, concentration dependence [4]: an increase in propagation speed of a concentration-dependent action potential was observed
